Results reported in US20240368668A1, “SUBSTRATES AND BIOMARKERS OF ADAMTS7” (The Broad Institute, Inc., priority 2021, published 2024).
Square brackets hold non-standard residues; d marks the D form. Ends that are not written are not given here. Met(O) = CS(=O)CC[C@H](N)C(=O)O

System: mouse ADAMTS7
Experiment: TMT10 TAILS N-terminomics, HUVEC experiment (process replicates, trypsin/AspN digest)
Type: cell-based, human
Settings: HUVEC TAILS HC; log fold change of N-terminal peptide, Ad-mADAMTS7 WT over EQ
Method in brief: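 Full-length mouse ADAMTS7 (WT or E373Q mutant, C-terminal 3xFLAG) or luciferase was transduced via adenovirus, 50 MOI, into HCA-SMC (SMC1, SMC2) or HUVEC. SMC1: pooled media, technical triplicates 400 ug; SMC2: process triplicates 300 ug; HUVEC: process triplicates 200 ug, bFGF2 10 ng/ml.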

Substance	logFC.mWT.over.mEQ
ASMT_321 (LSSAGFR; listed as Homo sapiens)	2.56
BICD1_280 (NNDDKMNGHIHGPLVKLNGDYR; listed as Homo sapiens)	1.31
CLU_267 (FQHPPTEFIR; listed as Homo sapiens)	1.64
CTGF_173 (TVVGPALAAYR; listed as Homo sapiens)	3.39
CTGF_174 (VVGPALAAYR; listed as Homo sapiens)	2.44
FN1_1624 (LVQTAVTTIPAPT; listed as Homo sapiens)	1.56
FN1_1743 (WESPQGQVSR; listed as Homo sapiens)	3.05
LTBP2_129 (QQQPAPR; listed as Homo sapiens)	5.32
LTBP2_253 (GEGTLAR; listed as Homo sapiens)	2.99
LTBP3_164 (LSTGALPPLAPEG; listed as Homo sapiens)	2.21
LTBP3_205 (HAAFLVPLGPGQISA; listed as Homo sapiens)	2.54
LTBP3_221 (VQAPPPVVNVR; listed as Homo sapiens)	3.11
MCFD2_55 (HLEGVINKPEA; listed as Homo sapiens)	0.99
PSAP_301 (LVEPIKKH; listed as Homo sapiens)	2.44
PTBP1_376 (AAAAAGR; listed as Homo sapiens)	1.06
PZP_578 (HAHLQVAAAPQSLCALR; listed as Homo sapiens)	2.45
THBS1_630 (FGQGVEHATANK; listed as Homo sapiens)	2.28
UQCRH_76 (HGSPNNSERAMRAVGE[Met(O)]CKGPGAAR; listed as Homo sapiens)	1.38
ZYX_244 (PVSLANTQPR; listed as Homo sapiens)	1.02
